Assay results: the supplement of paper PMC13380429
± gives the standard deviation of the averaged measurements.

Legend:
Settings in all cases: 72 h
Vero E6 [1] = experiment: cell viability relative to DMSO; higher = less toxic
U2OS [2] = experiment: as above
Calu-3 [3] = experiment: as above
HepG2 [4] = experiment: as above
Caco-2 [5] = experiment: as above
Vero E6 [6] = experiment: drug sensitivity score (DSS) for viability; higher = more toxic; extreme values may be limits of the assay
U2OS [7] = experiment: as above
Calu-3 [8] = experiment: as above
HepG2 [9] = experiment: as above
Caco-2 [10] = experiment: as above
Vero E6 [11] = experiment: relative viability EC50 (midpoint between 100% and the lowest measured viability); higher = less toxic
U2OS [12] = experiment: as above
Calu-3 [13] = experiment: as above
HepG2 [14] = experiment: as above
Caco-2 [15] = experiment: as above

Structure (SMILES)	cell viability (Vero E6 [1]; 1 nM)	cell viability (Vero E6 [1]; 10 nM)	cell viability (Vero E6 [1]; 100 nM)	cell viability (Vero E6 [1]; 1000 nM)	cell viability (Vero E6 [1]; 10000 nM)	cell viability (U2OS [2]; 1 nM)	cell viability (U2OS [2]; 10 nM)	cell viability (U2OS [2]; 100 nM)	cell viability (U2OS [2]; 1000 nM)	cell viability (U2OS [2]; 10000 nM)	cell viability (Calu-3 [3]; 1 nM)	cell viability (Calu-3 [3]; 10 nM)	cell viability (Calu-3 [3]; 100 nM)	cell viability (Calu-3 [3]; 1000 nM)	cell viability (Calu-3 [3]; 10000 nM)	cell viability (HepG2 [4]; 1 nM)	cell viability (HepG2 [4]; 10 nM)	cell viability (HepG2 [4]; 100 nM)	cell viability (HepG2 [4]; 1000 nM)	cell viability (HepG2 [4]; 10000 nM)	cell viability (Caco-2 [5]; 1 nM)	cell viability (Caco-2 [5]; 10 nM)	cell viability (Caco-2 [5]; 100 nM)	cell viability (Caco-2 [5]; 1000 nM)	cell viability (Caco-2 [5]; 10000 nM)	drug sensitivity score (Vero E6 [6])	drug sensitivity score (U2OS [7])	drug sensitivity score (Calu-3 [8])	drug sensitivity score (HepG2 [9])	drug sensitivity score (Caco-2 [10])	relative viability EC50 (Vero E6 [11])	relative viability EC50 (U2OS [12])	relative viability EC50 (Calu-3 [13])	relative viability EC50 (HepG2 [14])	relative viability EC50 (Caco-2 [15])
C[C@]12CC[C@@H]3c4ccc(O)cc4CC[C@H]3[C@@H]1C[C@@H](O)[C@@H]2O [estriol]	96%	99.1%	96.5%	89.2%	105%	99.3%	97.4%	101%	101%	102%	94.5%	96.5%	95.6%	93.7%	103%	106%	103%	96.8%	90.4%	96.1%	97.5%	96.3%	101%	105%	105%	0	0	0	0	0	> 10 µM	> 10 µM	> 10 µM	> 10 µM	> 10 µM
COCCOc1ccc(N2CCN(CCn3ncc4c3nc(N)n3nc(-c5ccco5)nc43)CC2)cc1 [preladenant]	91.2%	99.5%	97.7%	102%	99.6%	97.6%	101%	95.3%	95.1%	96.9%	106%	112%	97.2%	92.3%	107%	97%	105%	94%	99.6%	93.2%	98.1%	99%	98.1%	91.8%	93.1%	0	0	0	0	0	> 10 µM	> 10 µM	> 10 µM	> 10 µM	> 10 µM
COc1cccc(-n2nc(C(=O)O)cc2-c2ccc(C3CCCCC3)c(Cl)c2)c1 [TC-LPA5-4]	102%	104%	103%	99.6%	96%	100%	96.4%	97.8%	94.9%	94.9%	97.4%	94.5%	101%	95.8%	108%	111%	92.6%	101%	104%	102%	87.4%	93.6%	96.4%	97.7%	101%	0	0	0	0	0	> 10 µM	> 10 µM	> 10 µM	> 10 µM	> 10 µM
CCn1cc(C(=O)O)c(=O)c2cc3c(cc21)OCO3 [oxolinic-acid]	98.5%	109%	109%	93.6%	95%	101%	101%	96.2%	103%	97%	89.1%	99.9%	94.2%	106%	93.2%	97%	108%	113%	108%	94.1%	109%	98.9%	85.3%	102%	78.4%	0	0	0	0	0.6	> 10 µM	> 10 µM	> 10 µM	> 10 µM	> 10 µM
CCOP(=S)(OCC)Oc1nc(Cl)c(Cl)cc1Cl [chlorpyrifos]	102%	90.2%	109%	106%	94.2%	92.3%	102%	94.9%	94.8%	99.4%	89.7%	93.6%	90.1%	97%	96.2%	93.3%	100%	90.3%	96.3%	93.7%	100%	102%	97.5%	103%	107%	0	0	0	0	0	> 10 µM	> 10 µM	> 10 µM	> 10 µM	> 10 µM
NC(=O)C[S+]([O-])C(c1ccccc1)c1ccccc1 (stereo not given) [MODAFINIL]	97.3 ± 6%	103 ± 14%	96.2 ± 15%	88.6 ± 4%	104 ± 5.5%	99.2 ± 1.5%	97.8 ± 2.8%	99.7 ± 2.9%	98.2 ± 3%	100 ± 4.6%	93 ± 6.5%	99.4 ± 0.57%	99.3 ± 6.7%	102.2 ± 0.35%	95.8 ± 7.3%	102 ± 17%	103 ± 1.9%	99.2 ± 12%	96.1 ± 15%	95.3 ± 4.4%	103 ± 3.7%	99.5 ± 2.2%	109 ± 10%	100.4 ± 0.42%	97 ± 2.3%	0	0	0	0.55 ± 0.78	0	> 10 µM	> 10 µM	> 10 µM	> 10 µM	> 10 µM
CC(=O)/N=c1/sc(S(N)(=O)=O)nn1C [methazolamide]	97%	99%	98.2%	98.4%	92.7%	105%	107%	104%	98.3%	102%	100%	99.4%	93.7%	98.3%	107%	101%	97.6%	101%	101%	102%	110%	101%	100%	94%	96.7%	0	0	0	0	0	> 10 µM	> 10 µM	> 10 µM	> 10 µM	> 10 µM
Cc1nc2c(O)cccc2c(=O)[nH]1 [NU-1025]	99.7%	102%	98.7%	100%	98.1%	104%	100%	100%	99.9%	101%	96.6%	99.6%	102%	106%	99.8%	104%	109%	98.4%	109%	101%	101%	92.4%	96.6%	96.7%	101%	0	0	0	0	0	> 10 µM	> 10 µM	> 10 µM	> 10 µM	> 10 µM
C[N+]1(CCCCC[N+]2(C)CCCC2)CCCC1 [pentolinium]	96.3%	105%	102%	101%	108%	94.2%	98.7%	100%	99.2%	102%	97.1%	91.2%	110%	94%	88.1%	79.4%	99.3%	96%	112%	97.6%	99%	109%	124%	107%	88.7%	0	0	0.3	0	0	> 10 µM	> 10 µM	> 10 µM	> 10 µM	> 10 µM
CCC(COC(=O)c1cc(OC)c(OC)c(OC)c1)(c1ccccc1)N(C)C (stereo not given) [trimebutine]	98.2%	102%	98.4%	100%	98.2%	94.8%	101%	102%	97.2%	92.6%	97.5%	104%	100%	95.6%	100%	99.8%	104%	103%	96.7%	96.9%	94.5%	93.1%	95.4%	91.3%	88.4%	0	0	0	0	0	> 10 µM	> 10 µM	> 10 µM	> 10 µM	> 10 µM
OB1OCc2cc(F)ccc21 [tavaborole]	94.6%	96%	87.7%	92%	112%	99.2%	97.3%	100%	97.2%	102%	101%	105%	96.4%	104%	105%	92.9%	105%	103%	102%	105%	95.6%	87.4%	91.7%	88.3%	97.3%	0	0	0	0	0	> 10 µM	> 10 µM	> 10 µM	> 10 µM	> 10 µM
CN(Cc1cc(Br)cc(Br)c1N)C1CCCCC1 [bromhexine]	110%	97.9%	106%	102%	103%	98.9%	105%	96.3%	99.5%	98.2%	92%	90.7%	95.1%	90.9%	95.4%	99.2%	108%	107%	97.9%	108%	96.2%	109%	100%	97.9%	94.6%	0	0	0	0	0	> 10 µM	> 10 µM	> 10 µM	> 10 µM	> 10 µM
C1=N/C2=N/c3ccc(OCCN4CCCC4)c(c3)COC/C=C/COCc3cccc(c3)C(=C1)N2 [pacritinib]	96.3%	94.9%	94.7%	94.7%	7.2%	90.3%	91.6%	101%	89.7%	1.5%	104%	96.5%	95.6%	102%	27.8%	94.2%	102%	89.4%	92.1%	0.8%	88.9%	95.2%	94.6%	87.7%	26%	5.9	7.1	3.8	6.7	6.1	2.71 µM	2.3 µM	3.34 µM	2.51 µM	1.9 µM
CCCc1nc(C)c2c(=O)nc(-c3cc(S(=O)(=O)N4CCN(CC)CC4)ccc3OCC)[nH]n12 [vardenafil]	100%	107%	102%	106%	99.6%	102%	98.1%	103%	99.1%	99.5%	105%	88.8%	99.5%	96.5%	101%	98.7%	100%	96.4%	101%	89.8%	95.7%	93%	101%	104%	99.9%	0	0	0	0	0	> 10 µM	> 10 µM	> 10 µM	> 10 µM	> 10 µM
CN(C)CCNc1nc2cc(O)ccc2c2c1C(=O)c1ccccc1-2 [TAS-103]	101%	106%	84.8%	40%	0.1%	99.4%	95.3%	95.3%	49.5%	0%	109%	93.4%	89.1%	50.4%	15.4%	100%	95.9%	66.3%	15.5%	0.3%	102%	104%	102%	56.8%	22.3%	13.4	11.5	11.1	19.7	9.6	0.634 µM	0.975 µM	0.67 µM	0.19 µM	0.915 µM
